Assay [1] addresses T1, BTK (Homo sapiens (Human), UniProt Q06187). The experiment in a line: In Vitro PD Assay in Human Whole Blood (pBTK assay). The class given is cell-based. The conditions noted are these: human heparinized whole blood, 37° C. for 30 min, total BTK capture and phosphotyrosine detection (ECL). The essentials: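 Heparinized human venous whole blood spiked with serially diluted compound (0.1% DMSO final) and incubated 30 min at 37° C. Lysed with protease/phosphatase inhibitors (high control +PPi, low control −PPi lacking phosphatase inhibitors); total BTK captured and phosphotyrosine detected.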

The target in assay [2] is T1, BTK. The assay can be described thus: In Vitro BTK Kinase Assay: BTK-POLYGAT-LS ASSAY. The class given is biochemical. The conditions noted are these: fluorescein-labeled polyGAT peptide 100 nM, BTK enzyme 0.25 nM, 30 minutes, TRF. A digest of the protocol:
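ATP […] and polyGAT peptide (100 nM), final concentrations, in Tris-HCl pH 7.5 kinase buffer with MgCl2, DTT, Triton X-100 and casein. Reaction run 30 min, stopped with EDTA, then 45 min at room temperature.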

IC50 data for 23 compounds are collected here from US10899753B2, “Inhibiting agents for Bruton's tyrosine kinase” (BIOGEN MA INC., priority 2018, dated 2021).

Where only a bound is given, the exact number is not on record here.

T1 sequence (Q06187 whole entry): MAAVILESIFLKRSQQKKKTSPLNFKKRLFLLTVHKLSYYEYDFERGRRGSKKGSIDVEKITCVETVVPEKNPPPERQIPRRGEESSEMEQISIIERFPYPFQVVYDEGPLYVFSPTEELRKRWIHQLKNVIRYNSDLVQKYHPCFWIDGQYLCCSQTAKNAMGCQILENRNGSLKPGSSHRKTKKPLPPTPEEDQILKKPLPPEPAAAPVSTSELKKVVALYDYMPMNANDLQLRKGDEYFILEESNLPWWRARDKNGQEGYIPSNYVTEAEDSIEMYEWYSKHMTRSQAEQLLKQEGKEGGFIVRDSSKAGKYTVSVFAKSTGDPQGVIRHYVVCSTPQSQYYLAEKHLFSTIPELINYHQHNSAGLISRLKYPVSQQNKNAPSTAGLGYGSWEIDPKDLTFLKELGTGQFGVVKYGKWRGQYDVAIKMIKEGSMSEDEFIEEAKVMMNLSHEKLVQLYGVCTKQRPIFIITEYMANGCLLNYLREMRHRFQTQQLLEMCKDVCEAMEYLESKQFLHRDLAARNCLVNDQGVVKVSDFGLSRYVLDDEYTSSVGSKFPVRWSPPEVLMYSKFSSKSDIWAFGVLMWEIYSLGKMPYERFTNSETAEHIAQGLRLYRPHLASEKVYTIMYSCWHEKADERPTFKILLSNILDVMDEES

As usually defined, the IC50 is the concentration at which inhibition is half-maximal. Low readings indicate greater potency in that assay, high ones weaker potency in that assay. Turning to `Cn1cc(Nc2ncnc(-c3ccc(CNC(=O)c4coc(C(C)(C)C)n4)c(Cl)c3F)n2)cn1` [Compound 103, 2-(tert-butyl)-N-(2-chloro-3-fluoro-4-(4-((1-methyl-1H-pyrazol-4-yl)amino)-1,3,5-triazin-2-yl)benzyl)oxazole-4-carboxamide], the IC50 was 100 to 500 nM against BTK [1] and less than 1 nM against BTK [2].

For the compound `Cn1cc(Nc2ncnc(-c3ccc(CNC(=O)c4noc(C(C)(C)C)n4)c(C(F)(F)F)c3)n2)cn1` [Compound 17, 5-(tert-butyl)-N-(4-(4-((1-methyl-1H-pyrazol-4-yl)amino)-1,3,5-triazin-2-yl)-2-(trifluoromethyl)benzyl)-1,2,4-oxadiazole-3-carboxamide], the values for the IC50 against BTK [1] and against BTK [2] were 100 to 500 nM and less than 1 nM, respectively.

As for `Cc1cc(-c2ncnc(Nc3cnn(C)c3)n2)ccc1CNC(=O)c1coc(C(C)(C)C)n1` [Compound 107, 2-(tert-butyl)-N-(2-methyl-4-(4-((1-methyl-1H-pyrazol-4-yl)amino)-1,3,5-triazin-2-yl)benzyl)oxazole-4-carboxamide], the IC50 against BTK [1] is 500 to 10000 nM; against BTK [2], less than 1 nM.

Turning to `Cn1ccc(Nc2ncnc(-c3ccc(CNC(=O)c4nc(C(C)(C)C)no4)c(Cl)c3)n2)n1` [Compound 6, 3-(tert-butyl)-N-(2-chloro-4-(4-((1-methyl-1H-pyrazol-3-yl)amino)-1,3,5-triazin-2-yl)benzyl)-1,2,4-oxadiazole-5-carboxamide], the IC50 against BTK [1] is 500 to 10000 nM; against BTK [2], less than 1 nM.

Turning to `Cn1ccc(Nc2ncnc(-c3ccc4c(c3)CN(CC(F)(F)F)CC[C@H]4NC(=O)c3coc(C(C)(C)C)n3)n2)n1` [Compound 95, (R)-2-(tert-butyl)-N-(8-(4-((1-methyl-1H-pyrazol-3-yl)amino)-1,3,5-triazin-2-yl)-2-(2,2,2-trifluoroethyl)-2,3,4,5-tetrahydro-1H-benzo[c]azepin-5-yl)oxazole-4-carboxamide], the IC50 is 500 to 10000 nM against BTK [1] and less than 1 nM against BTK [2].

With `Cn1ccc(Nc2ncnc(-c3ccc4c(c3)CN(CC(F)(F)F)CC[C@H]4NC(=O)c3nc(C(C)(C)C)co3)n2)n1` [Compound 96, (R)-4-(tert-butyl)-N-(8-(4-((1-methyl-1H-pyrazol-3-yl)amino)-1,3,5-triazin-2-yl)-2-(2,2,2-trifluoroethyl)-2,3,4,5-tetrahydro-1H-benzo[c]azepin-5-yl)oxazole-2-carboxamide], the IC50 on BTK [1] is 500 to 10000 nM; on BTK [2] it was 1 to 10 nM.

Turning to `Cc1c(CNC(=O)c2noc(C(C)(C)C)n2)ccc(-c2ncnc(Nc3cnn(C)c3)n2)c1F` [Compound 13, 5-(tert-butyl)-N-(3-fluoro-2-methyl-4-(4-((1-methyl-1H-pyrazol-4-yl)amino)-1,3,5-triazin-2-yl)benzyl)-1,2,4-oxadiazole-3-carboxamide], the figures for the IC50 against BTK [1] and at BTK [2] were less than 100 nM and less than 1 nM, respectively.

Regarding `Cn1ccc(Nc2ncnc(-c3ccc(CNC(=O)c4noc(C(C)(C)CF)n4)c(C4CC4)c3)n2)n1` [Compound 54, N-(2-cyclopropyl-4-(4-((1-methyl-1H-pyrazol-3-yl)amino)-1,3,5-triazin-2-yl)benzyl)-5-(1-fluoro-2-methylpropan-2-yl)-1,2,4-oxadiazole-3-carboxamide], the IC50 was 100 to 500 nM on BTK [1] and less than 1 nM against BTK [2].

Consider `Cn1ccc(Nc2ncnc(-c3ccc(CNC(=O)c4noc(C5(C)CC5)n4)c(Cl)c3F)n2)n1` [Compound 104, N-(2-chloro-3-fluoro-4-(4-((1-methyl-1H-pyrazol-3-yl)amino)-1,3,5-triazin-2-yl)benzyl)-5-(1-methylcyclopropyl)-1,2,4-oxadiazole-3-carboxamide], for which the IC50 was 500 to 10000 nM against BTK [1] and less than 1 nM against BTK [2].

With `Cc1cc(-c2ncnc(Nc3cnn(C)c3)n2)ccc1CNC(=O)c1noc(C(C)(C)C)n1` [Compound 11, 5-(tert-butyl)-N-(2-methyl-4-(4-((1-methyl-1H-pyrazol-4-yl)amino)-1,3,5-triazin-2-yl)benzyl)-1,2,4-oxadiazole-3-carboxamide], the IC50 on BTK [1] was 100 to 500 nM; against BTK [2], less than 1 nM.

Regarding `Cc1c([C@@H](C)NC(=O)c2cc(C(C)(C)C)no2)ccc(-c2ncnc(Nc3cnn(C)c3)n2)c1F` [Compound 75, (R)-3-(tert-butyl)-N-(1-(3-fluoro-2-methyl-4-(4-((1-methyl-1H-pyrazol-4-yl)amino)-1,3,5-triazin-2-yl)phenyl)ethyl)isoxazole-5-carboxamide], the IC50 is 100 to 500 nM against BTK [1] and less than 1 nM on BTK [2].

As for `Cn1cc(Nc2ncnc(-c3ccc4c(c3)CN(CC(F)(F)F)CC[C@H]4NC(=O)c3coc(C(C)(C)C)n3)n2)cn1` [Compound 92, 2-tert-butyl-N-[(5R)-8-[4-[(1-methylpyrazol-4-yl)amino]-1,3,5-triazin-2-yl]-2-(2,2,2-trifluoroethyl)-1,3,4,5-tetrahydro-2-benzazepin-5-yl]oxazole-4-carboxamide], the IC50 on BTK [1] is less than 100 nM; against BTK [2], less than 1 nM.

For the compound `Cn1ccc(Nc2ncnc(-c3ccc4c(c3F)CCCC[C@H]4NC(=O)c3nc(C(C)(C)C)no3)n2)n1` [Compound 89, (R)-3-(tert-butyl)-N-(1-fluoro-2-(4-((1-methyl-1H-pyrazol-3-yl)amino)-1,3,5-triazin-2-yl)-6,7,8,9-tetrahydro-5H-benzo[7]annulen-5-yl)-1,2,4-oxadiazole-5-carboxamide], the IC50 was less than 100 nM against BTK [1] and less than 1 nM on BTK [2].

In the case of `Cc1c([C@@H](C)NC(=O)c2nc(C(C)(C)C)no2)ccc(-c2ncnc(Nc3cnn(C)c3)n2)c1Cl` [Compound 80, (R)-3-(tert-butyl)-N-(1-(3-chloro-2-methyl-4-(4-((1-methyl-1H-pyrazol-4-yl)amino)-1,3,5-triazin-2-yl)phenyl)ethyl)-1,2,4-oxadiazole-5-carboxamide], the IC50 was 100 to 500 nM against BTK [1] and less than 1 nM against BTK [2].

Consider `Cc1c([C@@H](C)NC(=O)c2noc(C(C)(C)C)n2)ccc(-c2ncnc(Nc3cnn(C)c3)n2)c1Cl` [Compound 81, (R)-5-(tert-butyl)-N-(1-(3-chloro-2-methyl-4-(4-((1-methyl-1H-pyrazol-4-yl)amino)-1,3,5-triazin-2-yl)phenyl)ethyl)-1,2,4-oxadiazole-3-carboxamide], for which the IC50 on BTK [1] was less than 100 nM; against BTK [2] it was less than 1 nM.

Consider `Cc1cc(-c2ncnc(Nc3ccn(C)n3)n2)ccc1CNC(=O)c1noc(C(C)(C)CF)n1` [Compound 44, 5-(1-fluoro-2-methylpropan-2-yl)-N-(2-methyl-4-(4-((1-methyl-1H-pyrazol-3-yl)amino)-1,3,5-triazin-2-yl)benzyl)-1,2,4-oxadiazole-3-carboxamide], for which the IC50 was 100 to 500 nM on BTK [1] and 1 to 10 nM on BTK [2].

As for `Cc1c(CNC(=O)c2noc(C3(C(F)(F)F)CC3)n2)ccc(-c2ncnc(Nc3ccn(C)n3)n2)c1F` [Compound 52, N-(3-fluoro-2-methyl-4-(4-((1-methyl-1H-pyrazol-3-yl)amino)-1,3,5-triazin-2-yl)benzyl)-5-(1-(trifluoromethyl)cyclopropyl)-1,2,4-oxadiazole-3-carboxamide], the IC50 against BTK [1] was 500 to 10000 nM; against BTK [2], 1 to 10 nM.

For `Cc1c([C@@H](C)NC(=O)c2nc(C(C)(C)C)no2)ccc(-c2ncnc(Nc3ccn(C)n3)n2)c1F` [Compound 72, (R)-3-(tert-butyl)-N-(1-(3-fluoro-2-methyl-4-(4-((1-methyl-1H-pyrazol-3-yl)amino)-1,3,5-triazin-2-yl)phenyl)ethyl)-1,2,4-oxadiazole-5-carboxamide], the IC50 against BTK [1] was 100 to 500 nM; at BTK [2], less than 1 nM.

`C[C@@H](NC(=O)c1noc(C(C)(C)C)n1)c1ccc(-c2ncnc(Nc3ccn(C)n3)n2)c(F)c1C(F)F` [Compound 82, (R)-5-(tert-butyl)-N-(1-(2-(difluoromethyl)-3-fluoro-4-(4-((1-methyl-1H-pyrazol-3-yl)amino)-1,3,5-triazin-2-yl)phenyl)ethyl)-1,2,4-oxadiazole-3-carboxamide]: the values for the IC50 against BTK [1] and on BTK [2] were 500 to 10000 nM and 1 to 10 nM, respectively.

Regarding `Cc1cc(-c2ncnc(Nc3cnn(C)c3)n2)ccc1CNC(=O)c1noc(C2(C)CC2)n1` [Compound 40, N-(2-methyl-4-(4-((1-methyl-1H-pyrazol-4-yl)amino)-1,3,5-triazin-2-yl)benzyl)-5-(1-methylcyclopropyl)-1,2,4-oxadiazole-3-carboxamide], the IC50 against BTK [1] is 100 to 500 nM; at BTK [2] it was less than 1 nM.

As to `Cc1cc(-c2ncnc(Nc3cnn(C)c3)n2)c(F)cc1CNC(=O)c1noc(C2(C)CC2)n1` [Compound 59, N-(5-fluoro-2-methyl-4-(4-((1-methyl-1H-pyrazol-4-yl)amino)-1,3,5-triazin-2-yl)benzyl)-5-(1-methylcyclopropyl)-1,2,4-oxadiazole-3-carboxamide], the IC50 on BTK [1] was 100 to 500 nM; at BTK [2] it was less than 1 nM.

On to `Cc1c(CNC(=O)c2nc(C3(CF)CC3)no2)ccc(-c2ncnc(Nc3ccn(C)n3)n2)c1F` [Compound 46, N-(3-fluoro-2-methyl-4-(4-((1-methyl-1H-pyrazol-3-yl)amino)-1,3,5-triazin-2-yl)benzyl)-3-(1-(fluoromethyl)cyclopropyl)-1,2,4-oxadiazole-5-carboxamide], for which the values for the IC50 on BTK [1] and against BTK [2] were 500 to 10000 nM and 1 to 10 nM, respectively.

On to `Cn1cc(Nc2ncnc(-c3ccc4c(c3)CCCC[C@H]4NC(=O)c3noc(C(C)(C)C)n3)n2)cn1` [Compound 33, 5-tert-butyl-N-[(5R)-2-[4-[(1-methylpyrazol-4-yl)amino]-1,3,5-triazin-2-yl]-6,7,8,9-tetrahydro-5H-benzo[7]annulen-5-yl]-1,2,4-oxadiazole-3-carboxamide], for which the results for the IC50 against BTK [1] and at BTK [2] were less than 100 nM and less than 1 nM, respectively.
